According to patent publication US7902354B2, “Lapachone compounds and methods of use thereof” (ArQule, Inc., priority 2006, dated 2011):
Like-named read-outs stand apart in the source and are kept apart here.

How the values were obtained:
Assay type in all cases: cell-based
[1] = tested on: A549 human lung carcinoma cells; test: MTS cell viability assay, A549 human lung carcinoma cells; conditions: read-out: IC50 Values, Cancerous Cells, Lung A549
[2] = tested on: DLD-1 human colon carcinoma cells; test: MTS cell viability assay, DLD-1 human colon carcinoma cells; conditions: read-out: IC50 Values, Cancerous Cells, Colon DLD-1
[3] = tested on: DU-145 human prostate carcinoma cells; test: MTS cell viability assay, DU-145 human prostate carcinoma cells; conditions: read-out: IC50 Values, Cancerous Cells, Prostate DU-145
[4] = tested on: K-562 human leukemia cells; test: MTS cell viability assay, K-562 human leukemia cells; conditions: read-out: IC50 Values, Cancerous Cells, Leukemia K-562
[5] = tested on: PACA-2 human pancreatic carcinoma cells; test: MTS cell viability assay, PACA-2 human pancreatic carcinoma cells; conditions: read-out: IC50 Values, Cancerous Cells, Pancreas PACA-2
[6] = tested on: NCM-460 normal colon epithelial cells; test: MTS cell viability assay, NCM-460 normal colon epithelial cells; conditions: for IC50: Homo sapiens, read-out: IC50 Values, Normal Cells, Colon NCM-460
[7] = A549, 4 h compound incubation, MTS
[8] = DLD-1, 4 h compound incubation, MTS
[9] = DU-145, 4 h compound incubation, MTS
[10] = K562, K-562, 4 h compound incubation, MTS
[11] = PACA-2, 4 h compound incubation, MTS
[12] = NCM460, NCM-460, 4 h compound incubation, MTS

SMILES | IC50 [1, 7] [µM] | IC50 [2, 8] [µM] | IC50 [3, 9] [µM] | IC50 [4, 10] [µM] | IC50 [5, 11] [µM] | IC50 [6, 12] [µM] | Fold Selectivity (NCM-460/DLD1) ([6]; ratio of IC50 NCM-460 / DLD1) | IC50 ([1]; A549, 4 h) [µM] | IC50 ([2]; DLD-1, 4 h) [µM] | IC50 ([3]; DU-145, 4 h) [µM] | IC50 ([4]; K562, 4 h) [µM] | IC50 ([5]; PaCa-2, 4 h) [µM] | Fold Selectivity (NCM-460/DLD1) [6] | IC50 ([6]; NCM460, 4 h) [µM]
Cc1cc(C(=O)N2CCC3(CC2)CSC2=C(O3)c3ccccc3C(=O)C2=O)nn1C [Compound 45, 1′-[(1,5-dimethyl-1H-pyrazol-3-yl)carbonyl]spiro[naphtho[1,2-b][1,4]oxathiine-2,4′-piperidine]-5,6-dione] | 19.7 | 4 | 4.3 | 3.95 | 4.49 | 9.84 | 2.5 | – | – | – | – | – | – | –
O=C1C(=O)c2ccccc2C2=C1SCC1(CCN(Cc3ccc(F)c(Cl)c3)CC1)O2 [Compound 142, 1′-(3-chloro-4-fluorobenzyl)spiro[naphtho[1,2-b][1,4]oxathiine-2,4′-piperidine]-5,6-dione] | 44.2 | 4.25 | 6.93 | 8.72 | 10.5 | 15.1 | 3.6 | – | – | – | – | – | – | –
O=C(O)CSCC(=O)N1CCC2(CC1)CSC1=C(O2)c2ccccc2C(=O)C1=O [Compound 234, {[2-(5,6-dioxo-5,6-dihydro-1′H-spiro[naphtho[1,2-b][1,4]oxathiine-2,4′-piperidine]-1′-yl)-2-oxoethyl]thio}acetic acid] | > 100 | > 100 | > 100 | > 100 | 55.6 | > 100 | – | – | – | – | – | – | – | –
O=C1C(=O)c2ccccc2C2=C1SCC1(CCN(S(=O)(=O)c3ccc(Cl)c(Cl)c3)CC1)O2 [Compound 76, 1′-[(3,4-dichlorophenyl)sulfonyl]spiro[naphtho[1,2-b][1,4]oxathiine-2,4′-piperidine]-5,6-dione] | > 100 | 27.1 | 28 | > 33.3 | 14.3 | 100 | 3.7 | – | – | – | – | – | – | –
O=C1C(=O)c2ccccc2C2=C1SCC1(CCN(C(=O)Nc3ccccc3)CC1)O2 [Compound 84, 5,6-dioxo-N-phenyl-5,6-dihydro-1′H-spiro[naphtho[1,2-b][1,4]oxathiine-2,4′-piperidine]-1′-carboxamide] | 16.9 | 4.69 | 10.3 | 6.83 | 6.38 | 19.1 | 4.1 | – | – | – | – | – | – | –
COc1ccc2c(c1)C1=C(SCC3(CCNCC3)O1)C(=O)C2=O [Compound 20, 9-methoxyspiro[naphtho[1,2-b][1,4]oxathiine-2,4′-piperidine]-5,6-dione] | > 100 | 49.5 | 60.5 | 48 | 27.5 | 61.7 | 1.2 | – | – | – | – | – | – | –
O=C1C(=O)c2ccccc2C2=C1SCC1(CCN(S(=O)(=O)c3c(Cl)nc4sccn34)CC1)O2 [Compound 77, 1′-[(6-chloroimidazo[2,1-b][1,3]thiazol-5-yl)sulfonyl]spiro[naphtho[1,2-b][1,4]oxathiine-2,4′-piperidine]-5,6-dione] | > 100 | 20.6 | 49.2 | 22.9 | 16.1 | 76.4 | 3.7 | – | – | – | – | – | – | –
Cc1cc(C(=O)N2CCC3(CC2)CSC2=C(O3)c3ccccc3C(=O)C2=O)n(C)n1 [Compound 42, 1′-[(1,3-dimethyl-1H-pyrazol-5-yl)carbonyl]spiro[naphtho[1,2-b][1,4]oxathiine-2,4′-piperidine]-5,6-dione] | 43 | 8.95 | 12.7 | 5.64 | 5.12 | 12.6 | 1.4 | – | – | – | – | – | – | –
O=C(O)CCC(=O)N1CCC2(CC1)CSC1=C(O2)c2ccccc2C(=O)C1=O [Compound 233, 4-(5,6-dioxo-5,6-dihydro-1′H-spiro[naphtho[1,2-b][1,4]oxathiine-2,4′-piperidin]-1′-yl)-4-oxobutanoic acid] | > 100 | 64.3 | 40.4 | 62.8 | 56.3 | 48.8 | 0.8 | – | – | – | – | – | – | –
Cc1ccc(OC(=O)N2CCC3(CC2)CSC2=C(O3)c3ccccc3C(=O)C2=O)cn1 [Compound 111, 6-methyllpyridin-3-yl 5,6-dioxo-5,6-dihydro-1′H-spiro[naphtho[1,2-b][1,4]oxathiine-2,4′-piperidine]-1′-carboxylate] | – | – | – | – | – | – | – | 4.63 | 1.52 | 4.1 | 2.01 | 1.7 | 3.1 | 4.78
O=C1C(=O)c2ccccc2C2=C1SCC1(CCN(C3C=CCCC3)CC1)O2 (stereo not shown) [Compound 135, 1′-cyclohex-2-en-1-ylspiro[naphtho[1,2-b][1,4]oxathiine-2,4′-piperidine]-5,6-dione] | 19.2 | 4.89 | 5.07 | 4.02 | 7.42 | 8.35 | 1.7 | – | – | – | – | – | – | –

The next lines start with results.

IC50 [1, 7] [µM] | IC50 [2, 8] [µM] | IC50 [3, 9] [µM] | IC50 [4, 10] [µM] | IC50 [5, 11] [µM] | SMILES | IC50 [6, 12] [µM] | Fold Selectivity (NCM-460/DLD1) ([6]; ratio of IC50 NCM-460 / DLD1) | IC50 ([1]; A549, 4 h) [µM] | IC50 ([2]; DLD-1, 4 h) [µM] | IC50 ([3]; DU-145, 4 h) [µM] | IC50 ([4]; K562, 4 h) [µM] | IC50 ([5]; PaCa-2, 4 h) [µM] | Fold Selectivity (NCM-460/DLD1) [6] | IC50 ([6]; NCM460, 4 h) [µM]
6.55 | 1.34 | 3.22 | 3.6 | 1.46 | O=C1C(=O)c2ccccc2C2=C1SCC1(CCN(CC(O)COCc3ccccc3)CC1)O2 (stereo not shown) [Compound 171, 1′-[3-(benzyloxy)-2-hydroxypropyl]spiro[naphtho[12-b][1,4]oxathiine-2,4′-piperidine]-5,6-dione] | 9.69 | 7.2 | – | – | – | – | – | – | –
6.02 | 1.66 | 2.02 | 1.45 | 1.31 | O=C1C(=O)c2ccccc2C2=C1SCC1(CCN(CC3CC3)CC1)O2 [Compound 122, 1′-(cyclopropylmethyl)spiro[naphtho[1,2-b][1,4]oxathiine-2,4′-piperidine]-5,6-dione] | 3.37 | 2.0 | – | – | – | – | – | – | –
14.4 | 4.15 | 4.49 | 2.71 | 3.92 | COC(=O)C(=O)N1CCC2(CC1)CSC1=C(O2)c2ccccc2C(=O)C1=O [Compound 52, methyl (5,6-dioxo-5,6-dihydro-1′H-spiro[naphtho[1,2-b][1,4]oxathiine-2,4′-piperidine]-1′-yl)(oxo)acetate] | 10.1 | 2.4 | – | – | – | – | – | – | –
6.62 | 1.53 | 4.05 | 2.86 | 1.94 | CC(C)CCN1CCC2(CC1)CSC1=C(O2)c2ccccc2C(=O)C1=O [Compound 132, 1′-(3-methylbutyl)spiro[naphtho[1,2-b][1,4]oxathiine-2,4′-piperidine]-5,6-dione] | 9.74 | 6.4 | – | – | – | – | – | – | –
7.3 | 3.11 | 3.98 | 1.43 | 1.61 | O=C1C(=O)c2ccccc2C2=C1SCC1(CCN(C(=O)OCc3ccccc3)CC1)O2 [Compound 98, benzyl 5,6-dioxo-5,6-dihydro-1′H-spiro[naphtho[1,2-b][1,4]oxathiine-2,4′-piperidine]-1′-carboxylate] | 4.78 | 1.5 | – | – | – | – | – | – | –
14.3 | 4.47 | 5.03 | 4.13 | 4.03 | C=CC(C)(O)CN1CCC2(CC1)CSC1=C(O2)c2ccccc2C(=O)C1=O (stereo not shown) [Compound 159, 1′-(2-hydroxy-2-methylbut-3-en-1-yl)spiro[naphtho[1,2-b][1,4]oxathiine-2,4′-piperidine]-5,6-dione] | 10.2 | 2.3 | – | – | – | – | – | – | –
